Measured values taken from article PMC5085131, “Cyclic AMP efflux inhibitors as potential therapeutic agents for leukemia” (Oncotarget, 2016).
Read-outs that look alike come from different tables or passages of the source.

Assays:
[1] = parameters: method as in as printed in each cell; conditions: previously reported; cited from earlier work
MHH Call 3 = test: CellTiter-Glo cell viability; format: cell-based; conditions: Homo sapiens; overnight, n = 6, ± SEM; read-out: Compound EC50, MHH Call 3 (cell viability)
Description: (§1) Cell viability was determined with the CellTiter-Glo® Luminescent Cell Viability Assay (Promega). Greiner 655083 had 100 μL cRPMI +/− 4×10^4 cells/well, and dose response curves of compounds ranged from 100 μM to 1.53 nM (1% DMSO). Wells with DMSO-only served as negative controls. Samples were incubated overnight, and the assay was completed according to the manufacturer's protocol. Plates were analyzed using a Victor^3V™ 1420 Multilabel Counter (Perkin Elmer).

Nalm 6 = test: CellTiter-Glo cell viability; format: cell-based; conditions: Homo sapiens, overnight, n = 6, ± SEM, read-out: Compound EC50, Nalm 6 (cell viability)
Description: as §1

697 = test: CellTiter-Glo cell viability; format: cell-based; conditions: Homo sapiens; overnight, n = 6, ± SEM; read-out: Compound EC50, 697 (cell viability)
Description: as §1

RS4;11 = test: CellTiter-Glo cell viability; format: cell-based; conditions: Homo sapiens, overnight, n = 6, ± SEM, read-out: Compound EC50, RS4;11 (cell viability)
Description: as §1

U937 cells [2] = test: CellTiter-Glo cell viability; format: cell-based; conditions: Homo sapiens, U-937; overnight, n = 8, ± SEM, fit top = 100, bottom = 0, hill slope = −1; read-out: Compound EC50, U937 (cell viability)
Description: as §1

Reh = test: CellTiter-Glo cell viability; format: cell-based; conditions: Homo sapiens, overnight, n = 6, ± SEM, read-out: Compound EC50, Reh (cell viability)
Description: as §1

Sup B15 = test: CellTiter-Glo cell viability; format: cell-based; conditions: Homo sapiens, overnight, n = 6, ± SEM, read-out: Compound EC50, Sup B15 (cell viability)
Description: as §1

B-ALL cell lines = test: CellTiter-Glo cell viability, all B-ALL cell lines together; format: cell-based, human; conditions: Homo sapiens; mean of converged EC50s of six B-ALL lines; read-out: Compound EC50, Mean B-ALL (cell viability)
Description: as §1

[3] = system: primary B-ALL patient samples; test: CellTiter-Glo cell viability of primary ALL patient samples ex vivo; format: cell-based, human; conditions: for EC50: Homo sapiens; for Cell viability vs. vehicle treated sample at lower concentrations: samples from patients no. 1 and no. 5
Description: Bone marrow samples were acquired at diagnosis from pediatric B-ALL patients. Mononuclear cells were enriched by centrifugation in Ficoll-Paque (GE Healthcare, cat. 17-1440-02) and aliquoted for storage in liquid nitrogen until use. Samples were thawed in a 37°C water bath, resuspended in 20% FBS cRPMI, and centrifuged to remove freezing medium. Cells were resuspended in conditioned medium (DMEM, 10% FBS, 50 U/ml penicillin-streptomycin, 2 mM L-glutamine) from HS-5 stromal cell cultures.
as §1
For primary ALL patient samples, media consisted of 50% cRPMI, 50% conditioned DMEM from HS-5 stromal cell cultures and compounds. Cell densities ranged from 28,000-68,000 cells/well, and plates were foil-sealed prior to incubation.

U937 cells [4] = test: F-cAMP efflux assay in U937 cells (screen and dose response); format: cell-based, human; conditions: screen at 10 μM, 51 hits retested in dose-response
Description: Cells were loaded with F-cAMP as described. Briefly, cells were resuspended in a hypertonic solution containing 10% polyethylene glycol 1000, 0.5 M sucrose, and 250 μM F-cAMP in cRPMI without FBS, incubated 10 min at room temperature, washed, and then resuspended in hypotonic solution (60% cRPMI, 40% sterile water) for 2 min at room temperature to complete F-cAMP loading. Cells were resuspended in cRPMI and equilibrated for 2 h under normal culture conditions.
Samples were evaluated using Accuri C6 or BD FACScan flow cytometers (Becton Dickinson (BD)).
Liquid handling was accomplished with a Biomek FX Multichannel system (Beckman-Coulter, Fullerton, CA, USA) and/or Biotek Multiflo system (Winooski, VT, USA). F-cAMP-loaded U937 cells (2000/well) were seeded into 384-well polypropylene plates (Greiner Bio-One 784201, Monroe, NC, USA). Cells were treated with compounds (10 μM final concentration) from the Prestwick Chemical Library (Illkirch, France) or […] Collection (MicroSource, Gaylordsville, CT, USA) delivered by pintool (V&P Scientific, San Diego, CA), at a final DMSO concentration of 1%. Plates were foil-sealed with AlumaSeal 384™ (Excel Scientific, Victorville, CA, USA), and incubated inverted overnight. Sample plates were analyzed by CyAn flow cytometers (Beckman-Coulter) configured with HyperCyt high-throughput auto-sampler systems (IntelliCyt, Albuquerque, NM, USA) using 488 nm excitation to assess FL-1 (530/40) MFI levels.
Data were analyzed with HyperView software (IntelliCyt) and time-gated to determine data from each well. Wells with ≥ 50 events were evaluated for FL-1 MFI values. Samples with MFI values ≥ 2 standard deviations above the plate mean negative control values were considered “hit” compounds.
To validate sample data and decrease the number of false-positive hits, compounds were assayed in a high-throughput dose response assay. Plates were set up as in the HTS, with the exception that the plate formats contained 10-well dose responses for each hit compound, at final concentrations ranging from 30 μM to 4 nM.
The dose response data were normalized for percent response based on sample FL-1 MFI values in comparison to untreated F-cAMP-loaded cells kept at 4°C overnight or at time = 0, and were fitted by GraphPad Prism 5 software (GraphPad Software, La Jolla, CA, USA) for sigmoidal dose response with constrained hill slope = 1.

[5] = mean of converged EC50s of six patient samples, read-out: Compound EC50 (Sample means), cell viability
[6] = primary B-ALL sample, duplicate, ± SEM, read-out: Compound EC50 (Patient no. 1), cell viability
[7] = primary B-ALL sample, duplicate, ± SEM, read-out: Compound EC50 (Patient no. 2), cell viability
[8] = primary B-ALL sample, duplicate, ± SEM, read-out: Compound EC50 (Patient no. 3), cell viability
[9] = primary B-ALL sample, duplicate, ± SEM, read-out: Compound EC50 (Patient no. 4), cell viability
[10] = primary B-ALL sample, duplicate, ± SEM, read-out: Compound EC50 (Patient no. 5), cell viability
[11] = primary B-ALL sample, duplicate, ± SEM, read-out: Compound EC50 (Patient no. 6), cell viability

SMILES | Anticancer effects [1] | Potential mechanism(s) of action [1] | EC50 (MHH Call 3) | EC50 (Nalm 6) | EC50 697 | EC50 (RS4;11) | EC50 (U937 cells [2]) | EC50 (Reh) | EC50 (Sup B15) | EC50 (B-ALL cell lines) | EC50 [3, 5] | EC50 [3, 6] | EC50 [3, 7] | EC50 [3, 8] | EC50 [3, 9] | EC50 [3, 10] | EC50 [3, 11] | Cell viability vs. vehicle treated sample at lower concentrations [3] | Outcome of screen for inhibitors of cAMP efflux after dose-response validation (U937 cells [4])
Oc1c(I)cc(Cl)c2cccnc12 [Clioquinol] | ↓cyclin D1 [110]; ↑p21, p27, p53 [106] | ↓NF-κB activation [108, 112]; ionophore/chelator activity [106, 108, 112]; proteasome inhibition [107, 109] | 67.1 ± 22.9 µM | 24.8 ± 12.1 µM | 18.6 ± 7.74 µM | 64.4 ± 36.6 µM | 40.6 ± 10.8 µM | 21.1 ± 4.61 µM | 15.4 ± 3.51 µM | 35.2 µM | 58.8 µM | 60.1 ± 53.5 µM | 158 ± 84.5 µM | 8.67 ± 4.84 µM | 48 ± 22.9 µM | 13.8 ± 5.23 µM | 63.9 ± 41.1 µM | significant increase in cell viability | potentially active
C[C@H]1COC2=C1C(=O)C(=O)c1c2ccc2c1CCCC2(C)C [Cryptotanshinone] | ↓cyclin D1, Bcl-2 [47, 115, 116]; ↑p53, Chk1, Chk2 [120] | ↓mTOR, STAT3 signaling [116, 117]; ↓eIF-4E [47] | 126 ± 35.9 µM | 70.2 ± 29.9 µM | 67.1 ± 31.8 µM | 8.36 ± 5.84 µM | 11.8 ± 6.78 µM | 105 ± 14.6 µM | 29.2 ± 7.58 µM | 67.7 µM | 19.1 µM | 12.9 ± 5.51 µM | 29.8 ± 8.97 µM | 14 ± 9.8 µM | 34.4 ± 5.79 µM | 6.88 ± 2.89 µM | 16.6 ± 5.55 µM |  | potentially active
C=C1C(=O)O[C@H]2[C@H]1CC/C(C)=C/CC[C@@]1(C)O[C@@H]21 [Parthenolide] | ↓VEGF expression & metastasis [61, 124, 125]; ↑p53 activation [48]; ↓cyclin D1 [61, 122] | ↓NF-κB & AP-1 activation [48, 61, 124, 126, 127]; ↓MAPK/ERK signaling [126, 127]; ↓STAT signaling [128]; ↑ROS[48, 65, 128] | 1.97 ± 0.59 µM | 0.72 ± 0.23 µM | 1.13 ± 0.31 µM | 3.07 ± 1 µM | 2.86 ± 1.55 µM | 2.19 ± 1.34 µM | 1.54 ± 0.36 µM | 1.77 µM | 3.15 µM | 4.72 ± 3.71 µM | 3.65 ± 1.73 µM | 3.17 ± 1.44 µM | 4.13 ± 1.92 µM | 0.92 ± 0.58 µM | 2.31 ± 0.78 µM | significant increase in cell viability | potentially active
O=C1C=C2C(=CCOC2O)O1 (stereo not drawn) [Patulin] | ↓ERK1/2 activation [52, 133]; ↑UPR[52, 133]; ↑intracellular [Ca2+] [134] | ↑ROS, DNA damage [57, 59, 132, 133, 135]; ↓glutathione [133, 135] | 0.53 ± 0.17 µM | 0.07 ± 0.01 µM | 0.13 ± 0.04 µM | 1.01 ± 0.22 µM | 3.1 ± 2.22 µM | 0.33 ± 0.13 µM | 0.2 ± 0.12 µM | 0.38 µM | 7.36 µM | 1.79 ± 1.75 µM | 4.72 ± 2.1 µM | 0.4 ± 0.29 µM |  | 22.5 ± 11.8 µM |  |  | potentially active
